The record followed here is patent US20220184222A1, “BICYCLE TOXIN CONJUGATES AND USES THEREOF” (BicycleTx Limited, priority 2019, published 2022).

Starred links: 1 amine or outer side, 2 acyl side, 3 side chain; linkers in the order of their positions; H or OH if unused. Non-standard residues stand in square brackets, D forms with d. Residues, ends and D or L forms follow the SMILES beside them. *: point of attachment. Dolaproine = CO[C@@H]([C@@H]1CCCN1)[C@@H](C)C(=O)O; Dil = CC[C@H](C)[C@H](NC)[C@@H](CC(=O)O)OC; PABC = O=C(OCc1ccc(N[*:1])cc1)[*:2]; X1 = O=C(CCCC(=O)*)ON1C(=O)CCC1=O; X2 = C[C@@H](N*)[C@@H](O)c1ccccc1; Cit = NC(=O)NCCC[C@H](N)C(=O)O; NMeV = CN[C@H](C(=O)O)C(C)C

In one assay the test system is CTG-0848. Nature of the assay: Champions TumorGraft NSCLC PDX efficacy, model CTG-0848. It is filed as in vivo, Mus musculus. How it is done:
(§1) Mice were implanted subcutaneously into the left flank with tumor fragments from one of the various models. After tumors grew to an average of 150-300 mm^3, mice were treated by IV administration Q7Dx4 (n=2) with vehicle or 3 mg/kg of BT5528. Effects on tumor growth were evaluated by measuring percent tumor growth inhibition (% TGI), and the number of complete responders (CR), partial responders (PR), and tumor-free survivors (TFS). Tolerability was assessed by body weight loss, lethality, and clinical signs of adverse treatment-related side effects. Tumor volumes and body weights were measured twice a week.
(§2) Dosing solutions of BT5528 […] were pre-formulated. These dosing solutions were stored at −80° C. in the dark. On each day of dosing, a frozen aliquot of each test agent was thawed, stored at 2-8° C. and used for dosing.
(§3) The animals used in this study are described below: • Species: Mus musculus • Strain: Athymic Nude-Foxn1^nu (immune-compromised) • Source: Envigo (Indianapolis, Ind., USA) • Number of animals per group: 2 • Age and sex: At least 6-8 weeks of age at start of dosing, female • Weight: At least 18 grams at start of dosing • Acclimation period: 3 days
(§4) Stock mice were implanted with tumor cells from Champions TumorGraft® models CTG-0160, CTG-0170, CTG-0178, CTG-0192, CTG-0363, CTG-0808, CTG-0838, CTG-0848, CTG-1212, CTG-1502, CTG-1535, CTG-2011, CTG-2393, CTG-2539 or CTG-2540. After the tumors reached 1000-1500 mm^3, they were harvested and the tumor fragments (approximately 5×5×5 mm^3) were implanted SC in the left flank of the female study mice. Each animal was implanted with a specific passage lot and documented. Tumor growth was monitored twice a week using digital calipers and the tumor volume (TV) was calculated using the formula (0.52×[length×width^2]). When the TV reached an average volume of 150-300 mm^3, animals were matched by tumor size and assigned into Vehicle Control and treatment groups (n=2/group) and dosing was initiated on Day 0. After the initiation of dosing on Day 0, animals were weighed twice per week using a digital scale and TV was measured twice per week and also on the final day of study. The study was completed when the mean tumor volume of Vehicle Control reached 1500 mm^3 or up to Day 60, whichever occurred first.
(§5) Beginning on Day 0, animals were observed daily and weighed twice weekly using a digital scale; data including individual and mean gram weights, mean percent weight change versus Day 0 (% vD0) were recorded for each group and % vD0 plotted at study completion. […] Treatment resulting in a mean % vD0>20% and/or >10% mortality was considered above the maximum tolerated dose. Maximum mean % vD0 (weight nadir) for each treatment group was reported at study completion.
(§6) Inhibition of tumor growth was determined by calculating the percent TGI (100%×[1−(final MTV−initial MTV of a treated group)/(final MTV−initial MTV of the control group)]). Treatment started on Day 0.
(§7) Additional endpoints used to evaluate efficacy were: the number of complete responders (CR), partial responders (PR), and tumor-free survivors (TFS). PRs were considered exclusive of CRs, as were TFS.
(§8) Statistical analyses of anti-tumor efficacy were performed using one-way ANOVA followed by Dunnett's multiple comparisons test (GraphPad Prism version 8.2.0). Significant p-values=<0.05.
Animals were dosed according to the schedule on Table 7-1. The study was terminated on Day 27.

The next assay deals with CTG-0808. Description: Champions TumorGraft NSCLC PDX efficacy, model CTG-0808. It is filed as in vivo, Mus musculus. On the procedure:
as §1, §2, §3, §4, §5, §6, §7, §8
Animals were dosed according to the schedule on Table 7-1. The Vehicle Control reached endpoint on Day 14 and the study was terminated on Day 28.

[1] abbreviates: CTG-0848, 3 mg/kg IV Q7Dx4, Day 0-27.
Where [2] appears, read: CTG-0808, 3 mg/kg IV Q7Dx4, Day 0-28.

A word on the TGI: it is how far tumour growth fell short of that in controls. As for `CC[C@H](C)[C@@H]([C@@H](CC(=O)N1CCC[C@H]1[C@H](OC)[C@@H](C)C(=O)N[C@H](C)[C@@H](O)c1ccccc1)OC)N(C)C(=O)[C@@H](NC(=O)[C@H](C(C)C)N(C)C(=O)OCc1ccc(NC(=O)[C@H](CCCNC(N)=O)NC(=O)[C@@H](NC(=O)CCCC(=O)ON2C(=O)CCC2=O)C(C)C)cc1)C(C)C` [BT5528] (X1-V[Cit][PABC][NMeV]V[Dil][Dolaproine]-X2), in the assay on CTG-0848 (3 mg/kg Q7Dx4, Day 27), the “MTV (mean tumor volume)” value was 512±113 mm^3 and the TGI came out at 56%. In addition, in the assay on CTG-0848 (setting [1]), the “# CR (complete responders)” value was 0/0/0, the “# PR (partial responders)” value is recorded as 0/0/0 and the “# TFS (tumor-free survivors)” value was 0/0/0. Moreover, in the assay on CTG-0848 (CTG-0848, 3 mg/kg IV Q7Dx4, Day 27), the “% TGI” value came to 56%. The “Day 27 Tumor Volume Mean TV ± SEM” value in the assay on CTG-0848 (CTG-0848, BT5528 3 mg/kg IV Q7Dx4, Day 27, n=2) is on record as 512 ± 113 mm^3. Besides, in the assay with CTG-0808 (3 mg/kg IV Q7Dx4, Day 14), the “MTV (mean tumor volume)” value is given as 541±4 mm^3 and the tumour growth inhibition (TGI) was 76%. Also, in the assay on CTG-0808 (setting [2]), the “# CR (complete responders)” value is given as 0/0/0, the “# PR (partial responders)” value was 0/0/0 and the “# TFS (tumor-free survivors)” value is 0/0/0. For the same molecule, the “% TGI” value in the assay on CTG-0808 (CTG-0808, 3 mg/kg IV Q7Dx4, Day 14) was 76%. In the assay on CTG-0808 (CTG-0808, BT5528 3 mg/kg IV Q7Dx4, Day 14, n=2), the “Day 14 Tumor Volume Mean TV ± SEM” value turned out to be 541 ± 4 mm^3.
